According to PubChem BioAssay (NCI):
Several values for one entry are separate records, joined by “and”; a condition that tells them apart may be missing. Identical values can stand only once.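 All cell lines were grown in 96-well plates and treated with compound for 48 hours. GI50 is the concentration that inhibits growth by half. TGI denotes the concentration required for complete inhibition of growth.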

Experiments:
Assay in all cases: NCI anticancer screen, dose series, 48 h
HCC-2998 colon = test system: HCC-2998 colon
HL-60(TB) leukemia = test system: HL-60(TB) leukemia
HS 578T breast = test system: HS 578T breast
OVCAR-3 ovarian = test system: OVCAR-3 ovarian
SK-OV-3 ovarian = test system: SK-OV-3 ovarian
SR leukemia = test system: SR leukemia
T-47D breast = test system: T-47D breast
UACC-257 melanoma = test system: UACC-257 melanoma
UACC-62 melanoma = test system: UACC-62 melanoma
A498 renal = test system: A498 renal

| Structure (SMILES) | TGI (HCC-2998 colon) | TGI (HL-60(TB) leukemia) | TGI (HS 578T breast) | TGI (OVCAR-3 ovarian) | TGI (SK-OV-3 ovarian) | TGI (SR leukemia) | TGI (T-47D breast) | TGI (UACC-257 melanoma) | TGI (UACC-62 melanoma) | GI50 (A498 renal) | TGI (A498 renal) | GI50 (HCC-2998 colon) | GI50 (HL-60(TB) leukemia) | GI50 (HS 578T breast) | GI50 (OVCAR-3 ovarian) | GI50 (UACC-257 melanoma) | GI50 (SK-OV-3 ovarian) | GI50 (UACC-62 melanoma) | GI50 (SR leukemia) | GI50 (T-47D breast) |
| --- | --- | --- | --- | --- | --- | --- | --- | --- | --- | --- | --- | --- | --- | --- | --- | --- | --- | --- | --- | --- |
| Cc1nn(C(=O)c2ccncc2)c2c1C(c1cccc([N+](=O)[O-])c1)SC(N)=N2 (configuration not stated) | > 10 µM | > 10 µM | > 10 µM | > 10 µM | > 10 µM | > 10 µM | > 10 µM | > 10 µM | > 10 µM | – | – | – | – | – | – | – | – | – | – | – |
| CCN(C(=O)CN1CCN(c2cc3c(cc2F)c(=O)c(C(=O)O)cn3CC)CC1)c1nc(-c2ccccc2)cs1 | > 100 µM | 0.47 µM | > 100 µM | > 100 µM | – | – | – | 1.55 µM | – | 0.244 µM | 0.917 µM | 0.402 µM | 0.199 µM | 0.842 µM | 0.475 µM | 0.307 µM | – | – | – | – |
| CC1=C[C@@H](C)C[C@]2(C)CC[C@H](O2)[C@]23CC[C@](C)(C[C@H](O2)[C@@H]2O[C@@](C)(CC2=O)[C@@H](O)[C@H]2CC[C@@]4(CCC[C@@H](O4)[C@H](C)C(=O)O[C@H]4C[C@H]([C@]5(O)OCC[C@H](C)[C@@H]5O)O[C@H]4C=C1)O2)O3 | > 10 µM | > 10 µM | 0.00214 µM | 0.02 µM | – | > 10 µM | > 10 µM | – | – | – | 0.005 µM | – | – | – | – | – | – | – | – | – |
| Clc1ccccc1NN(Cc1ccncc1)c1ccccc1Cl | – | 37 µM | 48.6 µM | 26.3 µM | 44.9 µM | 32.2 µM | – | – | 30.7 µM | – | 33.7 µM | – | – | – | – | – | – | – | – | – |
| O=C(O)[C@@H](NS(=O)(=O)c1ccc2ccccc2c1)c1ccccc1 | > 100 µM | > 100 µM | – | – | > 100 µM | – | – | > 100 µM | > 100 µM | – | > 100 µM | – | – | – | – | – | – | – | – | – |
| COC1(C)C(=O)N2C1N(C(=O)OCc1ccccc1)CC2(C)C (configuration not stated) | > 100 µM | > 100 µM | – | > 100 µM | – | > 100 µM | – | > 100 µM | > 100 µM | – | > 100 µM | – | – | – | – | – | – | – | – | – |
| COc1cccc2c1[C@H]1CO[C@H]3C4C[C@H](C(=O)O)C([C@@H](C2)N13)N4C (some centres not stated) | 8.08 µM and 1.2 µM | 4.03 µM and 1.85 µM | 0.656 µM | 2.99 µM and 3.94 µM | 7.84 µM and 1.75 µM | 8.55 µM | – | 5.15 µM and 1.81 µM | – | – | – | 0.593 µM | 0.368 µM | – | – | 0.703 µM | 6.06 µM and 0.803 µM | 0.0475 µM | – | – |
| Cc1occ2c1C(=O)CC1C2[C@@H](O)CC2C(C)(C)CCC[C@]12C (some centres not stated) | > 100 µM | > 100 µM | – | – | > 100 µM | > 100 µM | – | > 100 µM | > 100 µM | – | > 100 µM | – | – | – | – | – | – | – | – | – |
| CCOC(=O)c1c(NCc2ccccc2)n(-c2ccccc2)c(=S)n(-c2ccccc2)c1=O | > 100 µM | > 100 µM | 94.4 µM | > 100 µM | – | > 100 µM | > 100 µM | > 100 µM | > 100 µM | – | – | – | – | – | – | – | – | – | – | – |
| NCCC(=O)NC(Cc1cnc[nH]1)C(=O)O (configuration not stated) | > 100 µM | > 100 µM | > 100 µM | > 100 µM | – | – | > 100 µM | > 100 µM | – | – | – | – | – | – | – | – | – | – | – | – |
| COC/N=C(/N)NC#N | > 100 µM | > 100 µM | – | > 100 µM | > 100 µM | 53.4 µM | – | > 100 µM | > 100 µM | – | > 100 µM | – | – | – | – | – | – | – | – | – |
| CSCCCNC(=O)c1csc(-c2csc(CCNC(=O)CNC(=O)CNC(=O)CNC(=O)OC(C)(C)C)n2)n1 | > 100 µM | – | > 100 µM | > 100 µM | > 100 µM | – | – | > 100 µM | > 100 µM | – | > 100 µM | – | – | – | – | – | – | – | – | – |
| C=C1C(=O)O[C@H]2[C@H]1CC/C(CNC(=O)/C=C/c1ccccc1)=C\CC[C@@]1(C)O[C@@H]21 | 3.31 µM | – | 37 µM | 1.83 µM | 26 µM | 4.97 µM | 4.3 µM | 3.99 µM | 2.76 µM | 1.96 µM | 4 µM | 1.78 µM | – | 4.21 µM | 0.558 µM | 1.53 µM | 13.2 µM | 1.37 µM | 0.38 µM | 1.44 µM |
| CCCCCCCCCCCCCP(=O)(NCC(N)=O)OCC (configuration not stated) | 35.3 µM | 38.2 µM | – | 28.9 µM | 41.8 µM | – | – | 36.1 µM | 33 µM | – | 95.7 µM | – | – | – | – | – | – | – | – | – |
| CN1CCc2c1nc(-c1cccnc1)c1c2N(C)CC1 | > 100 µM | > 100 µM | – | > 100 µM | > 100 µM | – | – | > 100 µM | > 100 µM | – | > 100 µM | – | – | – | – | – | – | – | – | – |
| CC(=O)Nc1ccc(C(=O)N2N=C(C)/C(=C/c3cccc([N+](=O)[O-])c3)C2=O)cc1 | > 100 µM | > 100 µM | – | > 100 µM | – | > 100 µM | – | > 100 µM | – | – | – | – | – | – | – | – | – | – | – | – |
| COc1cccc(C2C(C#N)=C(N)Oc3c2ccc2ccccc32)c1 (configuration not stated) | 1.1 µM | 0.0629 µM | 15.1 µM | 0.0439 µM | 18.3 µM | > 66.7 µM | – | 32.8 µM | 19.8 µM | 0.0108 µM | 13.6 µM | 0.0355 µM | 0.0244 µM | < 0.0133 µM | < 0.0144 µM | 0.901 µM | 0.0431 µM | < 0.01 µM | < 0.01 µM | – |
| COCCOCOC(C)(C)[C@H](CCOC(C)=O)O[Si](c1ccccc1)(c1ccccc1)C(C)(C)C | 26 µM | 10.4 µM | – | 53.6 µM | > 100 µM | 14 µM | – | 31.1 µM | 55.3 µM | – | 68.4 µM | – | – | – | – | – | – | – | – | – |
| Cc1ccc(Sc2oc(-c3ccc(C)cc3)nc2[P+](c2ccccc2)(c2ccccc2)c2ccccc2)cc1 | 1.57 µM | 0.566 µM | 1.98 µM | 1.33 µM | 1.1 µM | – | – | 1.15 µM | 1.5 µM | 0.152 µM | 0.842 µM | 0.399 µM | 0.23 µM | 0.378 µM | 0.359 µM | 0.303 µM | 0.27 µM | 0.398 µM | – | – |
| C#CCSc1nc(N)c2ncn(C3OC(COP(=O)(O)O)C(O)C3O)c2n1 (configuration not stated) | > 239 µM | > 239 µM | – | > 239 µM | > 239 µM | > 239 µM | – | > 239 µM | > 239 µM | – | > 239 µM | – | – | – | – | – | – | – | – | – |
| COc1ccc2c(c1)C(=O)c1c-2c(N2CCNCC2)nc2ccccc12 | – | 5.16 µM | 20.9 µM | 30 µM | 19.2 µM | – | 4.41 µM | 5.11 µM | 12.1 µM | 7.4 µM | 21.1 µM | – | 1.8 µM | 5.15 µM | 13 µM | 2.38 µM | 6 µM | 3.55 µM | – | 1.96 µM |
| O=C(CCc1nc(=S)[nH][nH]1)Nc1cccc(C(F)(F)F)c1 | > 100 µM | > 100 µM | – | > 100 µM | > 100 µM | > 100 µM | – | > 100 µM | > 100 µM | – | > 100 µM | – | – | – | – | – | – | – | – | – |
